Experimental data as given in patent US20100197765A1, “METHOD FOR PROMOTING THE EXPRESSION OF P53, AND P53 EXPRESSION PROMOTER FOR USE IN THE METHOD” (THE UNIVERSITY OF TOKUSHIMA, priority 2007, published 2010).

Legend:
[1] = test system: p53; test: p53 mRNA (Northern) and p53 protein (Western) expression in siRNA-expressing HepG2 cells; format: cell-based, human
Method: Western immunoblotting was performed according to Huez, I. et al. Mol. Endocrinol. 15 2197-2210 (2001) or Masuda, K., et al. PLoS Med. 5, e94 (2008). As a primary antibody, anti p53 antibody (“DO-1” or “FL-393”, Santa Cruz Biotechnology, Inc.), anti […] (“clone AC-15”, Sigma Chemical Co.), anti HA (“Y-11”, Santa Cruz Biotechnology Inc.), and anti L-VEGF (polyclonal anti L-VEGF antibody) mentioned in the Huez, I. et al. (2001) were used.
Total RNAs were extracted according to a guanidine thiocyanate method. Labeled cDNAs were produced using the following antisense primers, a klenow fragment (New England BioLabs, Inc., Inc.), and [α^−32P]dCTP, with the following cDNAs being templates. Thus obtained labeled cDNAs were used as probes for the Northern blotting.
Each type of the vectors was transfected into HepG2 cells for 18 hours in the same manner as in the above-described item (1). Then, the cells were treated in the presence of 5-FU (30 μmol/L) (+) or the absence of 5-FU (−). With respect to the cells treated for 8 hours, the expression level of p53 mRNA was analyzed by the Northern blotting. With respect to the cells treated for 12 hours, the expression level of p53 protein was analyzed by the Western immunoblotting. Analysis of protein also was performed with respect to β-actin protein that is an endogenous control (hereinafter, the same applies). […] In FIG. 1C, the first row from the top indicates expression of p53 mRNA, the second row indicates expression of gapdh mRNA, the third row indicates expression of p53 protein, and the fourth row indicates expression of 6-actin protein. Further, in FIG. 1C, “−” indicates the treatment in the absence of 5-FU and “+” indicates the treatment in the presence of 5-FU.

[2] = test system: vegf IresRNA; test: vegf IresRNA by Northern blotting in siRNA-transfected HCT116 cells; format: cell-based, human; conditions: HCT116, 18 hours after transfection, vs control cells
Method: Whether or not vegf siRNA promotes the apoptosis sensitivity of cells was examined. In the same manner as in Example A1 except that HCT116 cells (parent cells, wild-type p53) were used instead of the HepG2 cells (wild-type p53), the vegf siRNA #1 vectors expressing siRNA #1, the vegf siRNA #2 vectors expressing siRNA #2, and the control siRNA vectors described above were respectively transfected into the HCT116 cells (parent cells, wild-type p53). Then, with regard to the cells after 18 hours from the transfection, the expression levels of vegf mRNA and gapdh mRNA were analyzed by quantitative RT-PCR (means±SD, n=4) and the expression levels of vegf IresRNA and gapdh mRNA were analyzed by Northern blotting. Also, with regard to HCT116 cells not transfected with the above-described recombinant vectors, the analyses were conducted in the same manner. The quantitative RT-PCR was conducted in the same manner as in Example B1, except that a primer set for vegf mRNA was used.

[3] = test system: p53-deleted cells HCT116; test: apoptosis (TUNEL) in p53-deleted HCT116 cells with vegf siRNA and 5-FU; format: cell-based, human; conditions: p53-deleted cells HCT116, 5-FU treated, 60 hours
Method: Apoptotic cells were evaluated by a TUNEL staining method using in situ Cell Death Detection kit (Roche Diagnostic). […] The counting was performed with respect to at least 300 cells in one measurement.
Various types of cells were treated with 5-FU, which is an anticancer agent inducing apoptosis in a p53-dependent manner, and the sensitivity to apoptosis was analyzed. The vegf siRNA#1 vectors expressing siRNA#1, the vegf siRNA #2 vectors expressing siRNA #2, and the control siRNA vectors described above respectively were transfected into HCT 116 (parent cells) and p53-deleted cells HCT116. Then, the cells after 18 hours from the transfection was treated for 60 hours in the presence of […] of 5-FU (+) or in the absence of 5-FU (−). The proportion (%) of apoptosis positive cells in the thus-treated cells was calculated based on “Apoptotic evaluation 2” above (means±SD, n=4).

[4] = test system: noxa mRNA, puma mRNA, and p21 mRNA; test: expression of mRNAs induced in p53 pathways in HepG2 cells (Northern); format: cell-based, human; conditions: HepG2, 5-FU 30 μmol/L, 16 hours
Method: In the same manner, HepG2 cells transfected with each type of the vectors were treated for 16 hours in the presence of 5-FU (30 μmol/L) (+) or the absence of 5-FU (−). With respect to the treated cells, expression of noxa mRNA, puma mRNA, and p21 mRNA induced in p53 pathways was analyzed by the Northern blotting. […] In FIG. 1D, the first row from the top indicates expression of noxa mRNA, the second row indicates expression of puma mRNA, the third row indicates expression of p21 mRNA, and the fourth row indicates expression of gapdh mRNA. Definitions of the lanes in FIG. 1D are the same as those of FIG. 1C.

[5] = test system: p53; test: endogenous p53 mRNA (quantitative RT-PCR) and p53 protein (Western) in siRNA-transfected HCT116 cells; format: cell-based, human
Method: From the results obtained in the above (1) and (2), it is interpreted that vegf IresRNA exerts an adverse influence in the p53 cancer suppression pathway. Thus, the expression level of endogenous p53 in cells transfected with vegf siRNA was examined. Specifically, the same transfected parent cells […] as in the above were treated for 8 hours in the presence of 80 lμmol/L of 5-FU (+) or in the absence of 5-FU (−), after which expression of p53 mRNA was analyzed by quantitative RT-PCR (means±SD, n=4). Also, the transfected cells were treated in the presence of 80 μmol/L of 5-FU (+) for a predetermined time (0, 8, 16, 24 hours), after which p53 protein was detected by the Western immunoblotting described above.

[6] = test system: HCT116 cell strain; test: tumor volume of si-vegf #1 HCT116 cell strain xenografted to nude mice; format: in vivo; conditions: si-vegf #1 cells vs si-Control cells, subcutaneous, n=5
Description: With regard to cells expressing siRNA against vegf, the effect thereof on the tumorigenicity in vivo was examined. Vegf siRNA #1 vectors expressing the above-described siRNA #1 were transfected into a HCT116 cell strain (wild-type p53) derived from human large bowel cancer, and the transfected cells were selected with an antibiotic blasticidin. The thus-obtained cell clone hereinafter is referred to as a si-vegf #1 cell strain. As a control, pcDNA6.2-GW/EmGFP-miR vectors (Invitrogen) to which a double-stranded oligonucleotide with a sequence (SEQ ID NO. 46: 5′-[…]-3′) having no homology to known vertebrate genes had been inserted were used (control siRNA vectors) as in the above. The […] cell strain was transfected with these control siRNA vectors in the same manner as in the above, and the transfected cells were selected with the antibiotic. The thus-obtained cell clone hereinafter is referred to as a si-Control cell strain. Then, the si-vegf #1 cell strain and the si-Control cell strain respectively were xenografted subcutaneously to femoral regions of nude mice, and the volume of the formed tumor was measured after the predetermined time (each n=5) in the same manner as in Example C2.

[7] = HepG2, absence of 5-FU, vs control cells
[8] = HepG2, presence of 5-FU (30 μmol/L), mRNA 8 hours, protein 12 hours
[9] = HCT116, absence of 5-FU, vs control
[10] = HCT116, further treated with 5-FU 80 μmol/L, 8 hours
[11] = HCT116, further treated with 5-FU 80 μmol/L, up to 24 hours

| Substance | expression of p53 mRNA and p53 protein [1, 7] | expression of p53 mRNA and p53 protein [1, 8] | amount of the expressed vegf IresRNA [2] | increase in proportion of apoptosis on siRNA expression [3] | expression induction of noxa mRNA, puma mRNA, and p21 mRNA [4] | amount of the expressed p53 mRNA [5, 9] | amount of the expressed p53 mRNA [5, 10] | amount of the expressed p53 protein [5, 11] | amount of the expressed p53 protein ([5]; HCT116, vs control) | tumor formation and tumor growth [6] |
| --- | --- | --- | --- | --- | --- | --- | --- | --- | --- | --- |
| siRNA #1: siRNA against vegf mRNA, SEQ ID NO 3/4, antisense complementary to bases 1062-1082 in SEQ ID NO. 1; expressed from pcDNA6.2-GW/EmGFP-miR vector (sense GCAUUGGACUUGCCUUGCUNN; antisense AGCAAGGCAAGGCUCCAAUGCNN) | increased | increased markedly | decreased | little increase | enhanced markedly | increased | increased markedly | increased markedly | increased | significant suppression |
| siRNA #2: siRNA against vegf mRNA, SEQ ID NO 5/6, antisense complementary to bases 1067-1087 in SEQ ID NO. 1; vector-expressed (sense GGAGCCUUGUUGCUGCUCUNN; antisense AGAGCAGCAAGGCAAGGCUCCNN) | increased | increased markedly | decreased markedly | little increase | enhanced markedly | increased | increased markedly | increased markedly | increased |  |
